Source: patent US20070059339A1, “1-O-BETA-D-glucopyranosylgeraniol-10,5-olide and use thereof” (ISKRA INDUSTRY CO., LTD., priority 2005, published 2007)
Entries after “also recorded” stand apart in the source; their conditions may differ. Marks after values point to notes of the source that are not given here.

Experiments:
[1] = Obesity ameliorating, lipid metabolism ameliorating and hypoglycemic action in mice bred with a high fat diet; type: in vivo, ddY male SPF mice
Text: 6 week-old ddY male SPF mice (Nippon .SLC, body weight: about 30 g) were pre-bred for 1 week, then, divided into two groups of a control group and an administration group (5 mice for each group). Each of the mice in both the groups was bred for 6 weeks with a high fat diet (lard 40%, corn starch 10%, granulated sugar 9%, mineral mix 4%, vitamin mix 1%, casein 29%, cellulose 5%, lactose 2%). For the mice in the administration group, a specimen solution prepared by dissolving the compound (I) in purified water was continuously administered for 6 weeks with a dose of 250 mg/kg once a day while allowing water-drinking, and the body weight was measured at a frequency of once a week, during the feeding period with the high fat diet. For the mice in the control group, purified water was administered for 6 weeks instead of the specimen solution while allowing water-drinking.
The average value of the body weight of mice in each group and the standard error thereof were measured, and a significant difference test (t-test) between both the groups was carried out.
On the other hand, after completion of the above-mentioned continuous administration allowing water-drinking for 6 weeks, serum was collected from each mouse and blood biochemical values were measured, and liver and fat were excised and the weights of them were measured, respectively. Using the respective measurement results, the average value and the standard error were measured for each group, and a significant difference test (t-test) was carried out between both the groups.

[2] = Hair growth ameliorating action on hair-removed back of mice, transdermal administration; type: in vivo, C3H male mice; settings: for Hair growth score versus control group (FIG. 9): 10 mg once a day
Text: 6 week-old C3H male mice (Nippon SLC, body weight: about 30 g) were pre-bred for 1 week, then, divided into two groups of a control group and an administration group (4 mice for each group). Hair on the back of the mice in both groups was removed with an electric shaver, and hair growth effect was investigated. […] For the mice in the control group, 45% water-containing ethanol was transdermally administered instead of the specimen solution for 28 days.
For observation of hair growth condition, hair growth score and hair length were measured.
For measurement of hair growth score, the back of a mouse on which a specimen solution or 45% water-containing ethanol had been applied was visually observed, and based on the conditions directly after hair removal, a case of no change was endowed with 0 point, a case of color change to blue at a center portion on the back was endowed with 1 point, a case of color change from blue black to gray at a center portion on the back was endowed with 2 points, a case of observation of hair growth at a center portion on the back was endowed with 3 points, and a case of covering about 50% at a center portion on the back with back hair and recovery of color before hair removal at a center portion on the back was endowed with 4 points. The score average value and the standard error of the mice in both the groups were measured. Since there was observed […] irregularity in hair growth score between the control group and the administration group, the Mann-Whitney U-test was carried out as a significant difference test between both groups.
On the other hand, for measurement of hair length, part of hair was collected every one week, then, 10 hairs were selected randomly while removing extremely longer hairs and extremely shorter hairs, and lengths of them were measured by a microscope.

[3] = Oral administration for two weeks at 2500 mg/kg per day, observation of side effects; type: in vivo; settings: ten ICR male mice, versus control group
[4] = 250 mg/kg once a day for 6 weeks, average +/- standard error of five mice
[5] = serum after 6 weeks, 250 mg/kg once a day, average +/- standard error of five mice

CC(C)=CC1C/C(=C/CO[C@@H]2OC(CO)[C@@H](O)C(O)C2O)C(=O)O1 (stereo partly drawn) [compound (I), 1-O-β-D-glucopyranosylgeraniol-10,5-olide]
Weight of fat, around kidney [1, 4]: 0.035 ± 0.010 g | Weight of fat, around posterior abdominal wall [1, 4]: 0.186 ± 0.096 g | Body weight versus control group (FIG. 8) ([1]; 250 mg/kg once a day for 6 weeks, weighed once a week): the body weight transited at a lower level | Blood biochemical value, blood glucose level ([1]; after 6 weeks, 250 mg/kg once a day, average +/- standard error of five mice): 183 +/− 35.7** mg/dL | Weight of liver ([1]; compound 250 mg/kg once a day for 6 weeks, average +/- standard error of five mice): 1.124 ± 0.124 g | Blood biochemical value, total cholesterol [1, 5]: 118 ± 22.3 mg/dL | Blood biochemical value, triglyceride [1, 5]: 26 ± 15.8 mg/dL | Hair growth score versus control group (FIG. 9) ([2]; day 7 to day 17 after transdermal administration): tended to be higher | Hair growth score versus control group (FIG. 9) ([2]; days 13, 15 and 16 after transdermal administration, Mann-Whitney U-test): significantly higher | Hair length versus control group ([2]; hair collected every one week, 10 hairs measured by microscope, 10 mg transdermally once a day, data not shown): no significant difference | Side effect [3]: did not provide a recognizable side effect; also recorded: no side effect was recognized at all
